According to ChEMBL document CHEMBL1146191, “Synthesis and evaluation of novel 1-(2-acylhydrazinocarbonyl)-cycloalkyl carboxamides as interleukin-1beta converting enzyme (ICE) inhibitors” (Bioorg Med Chem Lett, 2006):

Legend:
THP-1 = experiment: Inhibition of IL1-beta secretion in human THP1 cells; type: functional, cell-based
Caspase-8 = Caspase-8 (Homo sapiens, UniProt Q14790); experiment: Inhibition of caspase8
Caspase-1 = target: T1, Caspase-1 (Homo sapiens, UniProt P29466); experiment: Inhibition of ICE
T1 sequence (P29466 whole entry): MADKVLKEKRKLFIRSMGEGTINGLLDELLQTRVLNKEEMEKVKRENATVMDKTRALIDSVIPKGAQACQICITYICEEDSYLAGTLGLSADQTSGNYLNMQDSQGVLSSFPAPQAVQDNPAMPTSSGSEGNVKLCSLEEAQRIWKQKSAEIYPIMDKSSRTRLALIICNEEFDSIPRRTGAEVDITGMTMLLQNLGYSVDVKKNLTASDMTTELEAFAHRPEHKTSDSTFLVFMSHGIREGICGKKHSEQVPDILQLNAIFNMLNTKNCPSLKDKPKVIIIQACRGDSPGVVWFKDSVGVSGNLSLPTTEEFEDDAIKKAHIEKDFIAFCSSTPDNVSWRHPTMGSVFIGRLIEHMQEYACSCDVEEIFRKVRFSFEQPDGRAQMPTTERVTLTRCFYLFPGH

Caspase-3 = target: T2, Caspase-3 (Homo sapiens, UniProt P42574); experiment: Inhibition of caspase3
T2 sequence (P42574 whole entry): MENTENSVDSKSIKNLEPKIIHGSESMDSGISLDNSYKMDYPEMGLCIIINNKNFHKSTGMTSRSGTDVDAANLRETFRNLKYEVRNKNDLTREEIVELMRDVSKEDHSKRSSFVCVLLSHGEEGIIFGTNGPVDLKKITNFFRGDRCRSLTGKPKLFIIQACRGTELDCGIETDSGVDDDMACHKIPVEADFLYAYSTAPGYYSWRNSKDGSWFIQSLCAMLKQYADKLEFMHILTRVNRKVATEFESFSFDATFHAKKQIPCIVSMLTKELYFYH

Chain of Caspase-8 (Q14790 217-374 limits assumed): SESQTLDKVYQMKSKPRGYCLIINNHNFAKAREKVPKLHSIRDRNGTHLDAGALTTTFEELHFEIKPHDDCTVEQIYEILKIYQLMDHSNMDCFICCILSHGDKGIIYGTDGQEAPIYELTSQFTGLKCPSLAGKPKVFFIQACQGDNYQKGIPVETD
Chain of Caspase-8 (Q14790 385-479 limits assumed): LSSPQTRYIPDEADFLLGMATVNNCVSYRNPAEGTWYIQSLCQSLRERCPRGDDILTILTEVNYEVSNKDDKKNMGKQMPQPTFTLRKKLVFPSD

Structure (SMILES)	IC50 (THP-1) [nM]	IC50 (Caspase-8) [nM]	IC50 (Caspase-1) [nM]	IC50 (Caspase-3) [µM]
Cc1ccccc1C(=O)NNC(=O)C1(C(=O)N[C@H]2CC(=O)OC2O)CCC1 (stereo not given in full)	610	310	310	> 10
O=C1C[C@H](NC(=O)C2(C(=O)NNC(=O)c3ccc4ccccc4c3)CC2)C(O)O1 (stereo not given in full)	6400	≥ 10000	2900	> 10
Cc1cccc(C(=O)NNC(=O)C2(C(=O)N[C@H]3CC(=O)OC3O)CCCC2)c1 (stereo not given in full)	2000	1200	490	> 10
O=C1C[C@H](NC(=O)C2(C(=O)NNC(=O)c3cccc4ccccc34)Cc3ccccc3C2)C(O)O1 (stereo not given in full)	690	420	40	> 10
COc1cccc(C(=O)NNC(=O)C2(C(=O)N[C@H]3CC(=O)OC3O)CCC2)c1 (stereo not given in full)	400	2200	260	> 10
Cc1cccc(C(=O)NNC(=O)C2(C(=O)N[C@H]3CC(=O)OC3O)CCC2)c1 (stereo not given in full)	620	2700	150	> 10
O=C1C[C@H](NC(=O)C2(C(=O)NNC(=O)c3cccc4ccccc34)CCCCC2)C(O)O1 (stereo not given in full)	450	70	50	> 10
O=C1C[C@H](NC(=O)C2(C(=O)NNC(=O)c3ccc4ccccc4c3)CCC2)C(O)O1 (stereo not given in full)	–	6300	240	> 10
COc1cccc(C(=O)NNC(=O)C2(C(=O)N[C@H]3CC(=O)OC3O)CC2)c1 (stereo not given in full)	≥ 10000	≥ 10000	≥ 10000	> 10
O=C1C[C@H](NC(=O)C2(C(=O)NNC(=O)c3cccc4ccccc34)CCC2)C(O)O1 (stereo not given in full)	470	130	50	> 10
Cc1cccc(C(=O)NNC(=O)C2(C(=O)N[C@H]3CC(=O)OC3O)CCCCC2)c1 (stereo not given in full)	470	3900	430	> 10
O=C1C[C@H](NC(=O)C2(C(=O)NNC(=O)c3ccc4ccccc4c3)CCCC2)C(O)O1 (stereo not given in full)	570	3200	150	> 10
O=C1C[C@H](NC(=O)C2(C(=O)NNC(=O)c3ccc4ccccc4c3)CCCCC2)C(O)O1 (stereo not given in full)	790	2600	90	> 10
Cc1cccc(C(=O)NNC(=O)C2(C(=O)N[C@H]3CC(=O)OC3O)Cc3ccccc3C2)c1 (stereo not given in full)	≥ 2500	3120	430	> 10
Cc1ccc(C(=O)NNC(=O)C2(C(=O)N[C@H]3CC(=O)OC3O)CCC2)cc1 (stereo not given in full)	6900	4300	580	> 10
COc1cccc(C(=O)NNC(=O)C2(C(=O)N[C@H]3CC(=O)OC3O)CCCC2)c1 (stereo not given in full)	550	1170	200	> 10
Cc1cccc(C)c1C(=O)NNC(=O)C1(C(=O)N[C@H]2CC(=O)OC2O)CCCCC1 (stereo not given in full)	≥ 2500	230	≥ 10000	> 10
O=C1C[C@H](NC(=O)C2(C(=O)NNC(=O)c3ccc4ccccc4c3)Cc3ccccc3C2)C(O)O1 (stereo not given in full)	500	2100	30	> 10
CCO[C@@H]1OC(=O)C[C@@H]1NC(=O)[C@@H]1CCCN2C(=O)CC[C@H](NC(=O)c3nccc4ccccc34)C(=O)N12 [PRALNACASAN]	–	40	3.6	–
COc1cccc(C(=O)NNC(=O)C2(C(=O)N[C@H]3CC(=O)OC3O)CCCCC2)c1 (stereo not given in full)	1300	1800	240	> 10
COc1cccc(OC)c1C(=O)NNC(=O)C1(C(=O)N[C@H]2CC(=O)OC2O)CCCCC1 (stereo not given in full)	≥ 2500	300	700	> 10
O=C1C[C@H](NC(=O)C2(C(=O)NNC(=O)c3cccc4ccccc34)CCCC2)C(O)O1 (stereo not given in full)	480	90	40	> 10
